{"source": "patent US9139581B2", "about": "(PORTOLA PHARMACEUTICALS, INC., priority 2008, dated 2015)"}
{"molecular_target": "T1, full length active recombinant SYK enzyme (Homo sapiens, UniProt P43405)", "T1 construct": "full length active recombinant SYK enzyme (Millipore, Calif.); purchased Millipore", "experiment": "Inhibition of Syk tyrosine phosphorylation activity (LANCE TR-FRET)", "type": "biochemical", "conditions": "Table 3; 1 nM SYK, 100 μM ATP; read-out: Syk IC50 code", "procedure": "(§1) The in vitro and in vivo human syk activities of the inventive compounds can be determined by various procedures known in the art, such as a test for their ability to inhibit the activity of human plasma syk. […] Inhibition of Syk Tyrosine Phosphorylation Activity Potency of candidate molecules for inhibiting syk tyrosine phosphorylation activity is assessed by measuring the ability of a test compound to inhibit syk-mediated tyrosine phosphorylation of a syk-specific substrate. SYK tyrosine phosphorylation activity is measured using the LANCETM Technology developed by Perkin Elmer Life and Analytical Sciences (Boston, Mass.). LANCETM refers to homogeneous time resolved fluorometry applications using techniques such as time-resolved fluorescence resonance energy transfer assay (TR-FRET) (see generally for procedures in Perkin Elmer Application Note-How to Optimize a Tyrosine Kinase Assay Using Time Resolved Fluorescence-Based LANCE Detection, wwww.perkinelmer.com/lifesciences). The assay principle involves detection of a phosphorylated substrate using energy transfer from a phosphospecific europium-labeled antibody to streptavidin-allophycocyanin as an acceptor. To test the ability of candidate molecules to inhibit SYK tyrosine phosphorylation activity, molecules are reconstituted in 30% DMSO and serially diluted 1:3 with the final dilution containing DMSO in the absence of the candidate molecule. The final DMSO concentration in the assay is 3%. Kinase assays are performed as a two part reaction. The first reaction is a kinase reaction and which comprises of a candidate molecule, full length active recombinant SYK enzyme (Millipore, Calif.) and biotin-labeled SYK-specific substrate biotin-[…]-OH. The second reaction involves termination of the kinase reaction and the simultaneous addition of the detection reagents-europium-labeled anti-phosphotyrosine reagent (Eu-W1024-PY100, Perkin Elmer, Boston, Mass.) and Streptavidin-Allophycocyanin detection reagent (SA-APC, Prozyme, Calif.). The kinase reaction is performed in a black U-bottom 96-well microtitre plate. […] The reaction is allowed to proceed for 1 hour at room temperature. […] The detection reagents are added to the reaction mixture at the following dilutions-1:500 for Eu-W1024-PY100 and 1:250 for SA-APC. The kinase reaction is terminated by the addition of 50 μL quench buffer containing the detection reagents. The detection is allowed to proceed for 1 hr at room temperature. Detection of the phosphorlated substrate in the absence and presence of inhibitors is measured in the TR-FRET instrument, Analyst HT ([…], Sunnyvale, Calif.) and the condition for measurements are set up using CriterionHost Release 2.0 ([…], Sunnyvale, Calif.). […] IC50s were derived by non-linear regression analysis.", "units": {"IC50": "nM"}}
{"compound": "NCCOCCNc1nc(Nc2ccc(N3CCC[C@H]3C(N)=O)cc2)nc2[nH]ccc12", "note": "[Example 94, (S)-1-(4-(4-(2-(2-aminoethoxy)ethylamino)-7H-pyrrolo[2,3-d]pyrimidin-2-ylamino)phenyl)pyrrolidine-2-carboxamide]", "IC50": "100 to 1000"}
{"compound": "Nc1nc(Nc2ccc(C(=O)O)cc2)nc2[nH]cc(-c3ccncc3)c12", "note": "[Example 102, 4-(4-amino-5-(pyridin-4-yl)-7H-pyrrolo[2,3-d]pyrimidin-2-ylamino)benzoic acid]", "IC50": "> 1000"}
{"compound": "CC(=O)N1CCN(c2ccc(Nc3ncc(F)c(N4CCC(NC(=O)CC#N)CC4)n3)cc2)CC1", "note": "[Example 136, N-(1-(2-(4-(4-acetylpiperazin-1-yl)phenylamino)-5-fluoropyrimidin-4-yl)piperidin-4-yl)-2-cyanoacetamide]", "IC50": "> 1000"}
{"compound": "CC(=O)N(C)c1ccc(Nc2nc(Nc3cccc(CN)c3)c3cc[nH]c3n2)cc1", "note": "[Example 97, N-(4-(4-(3-(aminomethyl)phenylamino)-7H-pyrrolo[2,3-d]pyrimidin-2-ylamino)phenyl)-N-methylacetamide]", "IC50": "100 to 1000"}
{"compound": "CC(C)(CN)CNc1nc(Nc2ccc3cn[nH]c3c2)nc2[nH]ccc12", "note": "[Example 60, N4-(3-amino-2,2-dimethylpropyl)-N2-(1H-indazol-6-yl)-7H-pyrrolo[2,3-d]pyrimidine-2,4-diamine]", "IC50": "> 1000"}
{"compound": "COc1ccc(Nc2nc(Nc3ccc4c(c3)CCC(=O)N4)nc3[nH]cc(C#N)c23)cc1", "note": "[Example 111, 4-(4-methoxyphenylamino)-2-(2-oxo-1,2,3,4-tetrahydroquinolin-6-ylamino)-7H-pyrrolo[2,3-d]pyrimidine-5-carbonitrile]", "IC50": "100 to 1000"}
{"compound": "COC(=O)C(N)C1CCN(c2nc(Nc3ccc4c(c3)CCC(=O)N4)ncc2F)CC1", "note": "(stereo not shown) [Example 135, Methyl 2-amino-2-(1-(5-fluoro-2-(2-oxo-1,2,3,4-tetrahydroquinolin-6-ylamino)pyrimidin-4-yl)piperidin-4-yl)acetate]", "IC50": "> 1000"}
{"compound": "c1cc2c(NC3CCNCC3)nc(Nc3ccc4cn[nH]c4c3)nc2[nH]1", "note": "[Example 58, N2-(1H-indazol-6-yl)-N4-(piperidin-4-yl)-7H-pyrrolo[2,3-d]pyrimidine-2,4-diamine]", "IC50": "100 to 1000"}
{"compound": "NC(=O)c1cnc(-[n+]2ccn(-c3ccc(N)cc3)c2)nc1NC1CC1", "note": "[Example 6, 1-(4-aminophenyl)-3-(5-carbamoyl-4-(cyclopropylamino)pyrimidin-2-yl)-1H-imidazol-3-ium]", "IC50": "> 1000"}
{"compound": "O=C1CCc2cc(Nc3ncc(F)c(N4CCC(CO)CC4)n3)ccc2N1", "note": "[Example 39, 6-(5-fluoro-4-(4-(hydroxymethyl)piperidin-1-yl)pyrimidin-2-ylamino)-3,4-dihydroquinolin-2(1H)-one]", "IC50": "100 to 1000"}
{"compound": "CC(=O)N1CCN(c2ccc(Nc3ncc(F)c(N4CCC(CO)CC4)n3)cc2)CC1", "note": "[Example 38, 1-(4-(4-(5-fluoro-4-(4-(hydroxymethyl)piperidin-1-yl)pyrimidin-2-ylamino)phenyl)piperazin-1-yl)ethanone]", "IC50": "> 1000"}
{"compound": "N[C@H]1CC[C@@H](Nc2nc(Nc3ccc4c(c3)CCC(=O)N4)ncc2-c2ccncc2)CC1", "note": "[Example 143, 6-(4-((1s,4s)-4-aminocyclohexylamino)-5-(pyridin-4-yl)pyrimidin-2-ylamino)-3,4-dihydroquinolin-2(1H)-one]", "IC50": "> 1000"}
{"compound": "CNc1nc(Nc2ccc(N(C)C(=O)C3CC3)cc2)nc2[nH]ccc12", "note": "[Example 82, N-(4-(4-(methylamino)-7H-pyrrolo[2,3-d]pyrimidin-2-ylamino)phenyl)-N-methylcyclopropanecarboxamide]", "IC50": "100 to 1000"}
{"compound": "NC(=O)NCC1CCN(c2nc(Nc3ccc4c(c3)CCC(=O)N4)ncc2F)CC1", "note": "[Example 37, 1-((1-(5-fluoro-2-(2-oxo-1,2,3,4-tetrahydroquinolin-6-ylamino)pyrimidin-4-yl)piperidin-4-yl)methyl)urea]", "IC50": "100 to 1000"}
{"compound": "CC(=O)N(C)c1ccc(Nc2nc(NC3CCCCC3N)c3cc[nH]c3n2)cc1", "note": "(stereo not drawn) [Example 63, N-(4-(4-(2-aminocyclohexylamino)-7H-pyrrolo[2,3-d-]pyrimidin-2-ylamino)phenyl)-N-methylacetamide]", "IC50": "> 1000"}
{"compound": "CS(=O)(=O)Cc1cccc(Nc2nc(NC3CCC3)c3cc[nH]c3n2)c1", "note": "[Example 77]", "IC50": "100 to 1000"}
{"compound": "CC(=O)N1CCN(c2ccc(Nc3nc(NCC4CCNCC4)c4c(C#N)c[nH]c4n3)cc2)CC1", "note": "[Example 45, 2-(4-(4-acetylpiperazin-1-yl)phenylamino)-4-(piperidin-4-ylmethylamino)-7H-pyrrolo[2,3-d]pyrimidine-5-carbonitrile]", "IC50": "100 to 1000"}
{"compound": "N#Cc1c[nH]c2nc(Nc3ccc(S(N)(=O)=O)cc3)nc(NC3CC3)c12", "note": "[Example 106, 4-(5-cyano-4-(cyclopropylamino)-7H-pyrrolo[2,3-d]pyrimidin-2-ylamino)benzenesulfonamide]", "IC50": "1 to 10"}
{"compound": "CC(=O)N1CCN(c2ccc(Nc3nc(Nc4cccc(C(N)=O)c4)c4cc[nH]c4n3)cc2)CC1", "note": "[Example 95A, 3-(2-(4-(4-acetylpiperazin-1-yl)phenylamino)-7H-pyrrolo[2,3-d]pyrimidin-4-ylamino)benzamide]", "IC50": "100 to 1000"}
{"compound": "c1cc(-c2c[nH]c3nc(Nc4ccc5cn[nH]c5c4)nc(NC4CC4)c23)ccn1", "note": "[Example 43, N4-cyclopropyl-N2-(1H-indazol-6-yl)-5-(pyridin-4-yl)-7H-pyrrolo[2,3-d]pyrimidine-2,4-diamine]", "IC50": "100 to 1000"}
{"compound": "CC(=O)N1CCN(c2ccc(Nc3nc(NC4CCC(N)CC4)c4cc[nH]c4n3)cc2)CC1", "note": "(stereo not shown) [Example 66, 1-(4-(4-(4-(4-aminocyclohexylamino)-7H-pyrrolo[2,3-d]pyrimidin-2-ylamino)phenyl)piperazin-1-yl)ethanone]", "IC50": "10 to 100"}
{"molecular_target": "T1, full length active recombinant SYK enzyme", "experiment": "Inhibition of Syk tyrosine phosphorylation activity (LANCE TR-FRET)", "type": "biochemical", "conditions": "Table 4; 1 nM SYK, 100 μM ATP; read-out: syk IC50", "procedure": "as §1", "units": {"IC50": "nM"}}
{"compound": "NC(=O)C1CCCN(c2nc(Nc3ccc4cn[nH]c4c3)ncc2F)C1", "note": "(stereo not shown) [Example 26, 1-(2-(1H-indazol-6-ylamino)-5-fluoropyrimidin-4-yl)piperidine-3-carboxamide]", "IC50": "100 to 1000"}
{"compound": "NCC1CCCCN1c1nc(Nc2ccc3cn[nH]c3c2)ncc1F", "note": "(stereo not shown) [Example 36, N-(4-(2-(aminomethyl)piperidin-1-yl)-5-fluoropyrimidin-2-yl)-1H-indazol-6-amine]", "IC50": "> 1000"}
{"compound": "c1cc2c(N3CCCC3)nc(Nc3ccc(N4CCNCC4)cc3)nc2[nH]1", "note": "[Example 21, N-(4-(piperazin-1-yl)phenyl)-4-(pyrrolidin-1-yl)-7H-pyrrolo[2,3-d]pyrimidin-2-amine]", "IC50": "100 to 1000"}
{"compound": "CC(=O)N1CCN(c2ccc(Nc3ncc(C(N)=O)c(N4CCCC(CO)C4)n3)cc2)CC1", "note": "(stereo not shown) [2-(4-(4-acetylpiperazin-1-yl)phenylamino)-4-(3-(hydroxymethyl)piperidin-1-yl)pyrimidine-5-carboxamide]", "IC50": "100 to 1000"}
{"compound": "CC(=O)N1CCN(c2ccc(Nc3nc(N4CCC(C(N)=O)CC4)c4cc[nH]c4n3)cc2)CC1", "note": "[Example 24, 1-(2-(4-(4-acetylpiperazin-1-yl)phenylamino)-7H-pyrrolo[2,3-d]pyrimidin-4-yl)piperidine-4-carboxamide]", "IC50": "100 to 1000"}
{"compound": "c1cc2c(N3CCCCC3)nc(Nc3ccc(N4CCNCC4)cc3)nc2[nH]1", "note": "[Example 19, N-(4-(piperazin-1-yl)phenyl)-4-(piperidin-1-yl)-7H-pyrrolo[2,3-d]pyrimidin-2-amine]", "IC50": "> 1000"}
{"compound": "CC(=O)N1CCN(c2ccc(Nc3nc(N4CCCC4)c4cc[nH]c4n3)cc2)CC1", "note": "[Example 22, 1-(4-(4-(4-(pyrrolidin-1-yl)-7H-pyrrolo[2,3-d]pyrimidin-2-ylamino)phenyl)piperazin-1-yl)ethanone]", "IC50": "100 to 1000"}
